Assay type in all cases: functional
Settings in all cases: read-out: IZ

The subject of experiment [1] is Escherichia coli. Briefly: Antibacterial activity against Escherichia coli at 100 ug/disk by agar plate disk diffusion method.
The subject of experiment [2] is Proteus vulgaris. Briefly: Antibacterial activity against Proteus vulgaris at 100 ug/disk by agar plate disk diffusion method. (A growth-free zone around the sample is the usual read-out of agar diffusion tests.)
In experiment [3] the test system is Staphylococcus aureus. Briefly: Antibacterial activity against Staphylococcus aureus at 100 ug/disk by agar plate disk diffusion method.
The subject of experiment [4] is Aspergillus niger. As to the kind of experiment: Antifungal activity against Aspergillus niger at 100 ug/disk by agar plate disk diffusion method.
The subject of experiment [5] is Pseudomonas aeruginosa. As to the kind of experiment: Antibacterial activity against Pseudomonas aeruginosa at 100 ug/disk by agar plate disk diffusion method.
For experiment [6], the system named is Candida albicans. Briefly: Antifungal activity against Candida albicans at 100 ug/disk by agar plate disk diffusion method.
For experiment [7], the system named is Proteus vulgaris. Briefly: Antibacterial activity against Proteus vulgaris at 50 ug/disk by agar plate disk diffusion method.
Experiment [8] concerns Pseudomonas aeruginosa. Briefly: Antibacterial activity against Pseudomonas aeruginosa at 50 ug/disk by agar plate disk diffusion method.
For experiment [9], the system named is Staphylococcus aureus. Briefly: Antibacterial activity against Staphylococcus aureus at 50 ug/disk by agar plate disk diffusion method.
Experiment [10] relates to Escherichia coli. As to the kind of experiment: Antibacterial activity against Escherichia coli at 50 ug/disk by agar plate disk diffusion method.
Experiment [11] concerns Candida albicans. As to the kind of experiment: Antifungal activity against Candida albicans at 50 ug/disk by agar plate disk diffusion method.
Experiment [12] concerns Aspergillus niger. As to the kind of experiment: Antifungal activity against Aspergillus niger at 50 ug/disk by agar plate disk diffusion method.

In the case of `CN(C)c1ccc(/C=C/C(=O)n2c(=O)c(=O)[nH]c3ccccc32)cc1`, the zone of inhibition at 100 µg/disc is 33 mm in the experiment on Escherichia coli [1]; 33 mm in the experiment with Proteus vulgaris [2]; 18 mm with Staphylococcus aureus [3]; 0 mm in the experiment on Aspergillus niger [4]; 31 mm with Pseudomonas aeruginosa [5]; 0 mm in the experiment with Candida albicans [6].

As to `O=c1[nH]c2ccccc2n(CN(c2ccccc2)c2ccccc2)c1=O`, the zone of inhibition at 100 µg/disc with Escherichia coli [1] turned out to be 30 mm; in the experiment with Proteus vulgaris [2], 30 mm; with Staphylococcus aureus [3], 26 mm; in the experiment with Aspergillus niger [4], 28 mm; in the experiment with Pseudomonas aeruginosa [5], 35 mm; in the experiment on Candida albicans [6], 20 mm.

In the case of `O=c1[nH]c2ccccc2n(Cn2nnc3ccccc32)c1=O`, the zone of inhibition at 100 µg/disc in the experiment on Escherichia coli [1] was found to be 39 mm; in the experiment on Proteus vulgaris [2], 34 mm; in the experiment with Staphylococcus aureus [3] it was 29 mm; in the experiment on Aspergillus niger [4] it was 28 mm; in the experiment with Pseudomonas aeruginosa [5], 39 mm; in the experiment with Candida albicans [6], 20 mm.

As for `CC(=O)n1c(=O)c(=O)[nH]c2ccccc21`, the zone of inhibition at 100 µg/disc in the experiment on Escherichia coli [1] was determined as 24 mm; with Proteus vulgaris [2] it was 26 mm; with Staphylococcus aureus [3] it was 20 mm; in the experiment on Aspergillus niger [4], 20 mm; in the experiment with Pseudomonas aeruginosa [5], 29 mm; with Candida albicans [6] it was 0 mm.

In the case of `CCn1cc(C(=O)O)c(=O)c2ccc(C)nc21` [NALIDIXIC ACID], the zone of inhibition at 50 µg/disc in the experiment with Proteus vulgaris [7] turned out to be 34 mm; with Pseudomonas aeruginosa [8] it was 22 mm; in the experiment with Staphylococcus aureus [9], 24 mm; in the experiment on Escherichia coli [10], 25 mm.

On to `COc1cc(O)ccc1/C=C/C(=O)n1c(=O)c(=O)[nH]c2ccccc21`, for which the zone of inhibition at 100 µg/disc in the experiment with Escherichia coli [1] stood at 16 mm; in the experiment with Proteus vulgaris [2] it was 18 mm; in the experiment with Staphylococcus aureus [3], 16 mm; in the experiment on Aspergillus niger [4], 16 mm; with Pseudomonas aeruginosa [5], 18 mm; in the experiment with Candida albicans [6] it was 10 mm.

As for `CC1=NNC(=O)C1Cn1c(=O)c(=O)[nH]c2ccccc21` (stereo not given), the zone of inhibition at 100 µg/disc in the experiment on Escherichia coli [1] was determined as 37 mm; in the experiment on Proteus vulgaris [2], 32 mm; with Staphylococcus aureus [3], 33 mm; in the experiment on Aspergillus niger [4], 23 mm; in the experiment with Pseudomonas aeruginosa [5], 39 mm; with Candida albicans [6], 21 mm.

Turning to `Clc1ccccc1C(c1ccccc1)(c1ccccc1)n1ccnc1` [CLOTRIMAZOLE], the zone of inhibition at 50 µg/disc was found to be 13 mm with Candida albicans [11] and 21 mm in the experiment with Aspergillus niger [12].

As for `O=C(/C=C/c1ccccc1)n1c(=O)c(=O)[nH]c2ccccc21`, the zone of inhibition at 100 µg/disc with Escherichia coli [1] was found to be 26 mm; in the experiment with Proteus vulgaris [2], 30 mm; in the experiment on Staphylococcus aureus [3], 20 mm; with Aspergillus niger [4] it was 24 mm; in the experiment with Pseudomonas aeruginosa [5], 29 mm; in the experiment on Candida albicans [6], 18 mm.

Regarding `O=c1[nH]c2ccccc2n(Cn2cnc3ccccc32)c1=O`, the zone of inhibition at 100 µg/disc was 33 mm with Escherichia coli [1]; 32 mm in the experiment on Proteus vulgaris [2]; 36 mm with Staphylococcus aureus [3]; 25 mm in the experiment with Aspergillus niger [4]; 35 mm with Pseudomonas aeruginosa [5]; 18 mm in the experiment on Candida albicans [6].

For `O=C1c2ccccc2C(=O)N1Cn1c(=O)c(=O)[nH]c2ccccc21`, the zone of inhibition at 100 µg/disc turned out to be 30 mm in the experiment with Escherichia coli [1]; 31 mm with Proteus vulgaris [2]; 29 mm in the experiment on Staphylococcus aureus [3]; 23 mm with Aspergillus niger [4]; 34 mm in the experiment on Pseudomonas aeruginosa [5]; 23 mm with Candida albicans [6].
